Assay results as given in article PMC6934455, “Molecular Dynamics model of peptide-protein conjugation: case study of covalent complex between Sos1 peptide and N-terminal SH3 domain from Grb2” (Scientific Reports, 2019).

Biological target: T1, C32S Grb2 N-SH3 (Homo sapiens, UniProt P62993, C32S)
T1 construct: encoding residues 2–59 of human Grb2; His6 (N); host or cells: E. coli Rosetta DE3 (Novagen)
Assay: 1HN,15N-HSQC NMR titration, noncovalent binding
Text: For quantitative analysis, we have selected a group of 8 well-resolved peaks showing substantial titration effects. The two-dimensional HSQC titration data for these peaks have been fitted using the program TITAN[39] on per-residue basis, as well as collectively (illustrated in Fig. 1D; for complete summary see Fig. S1).
pET-28 vectors for Grb2 N-SH3 (WT and C32S) encoding residues 2–59 of human Grb2 have been purchased from GenScript. The protein additionally containing N-terminal His6-tag was expressed in Rosetta DE3 cells (Novagen) using minimal M9 media. ^15N-NH4Cl and ^13C-glucose supplements have been used for isotope labeling. Protein expression was induced when OD600 reached 0.8. After 16 hours of incubation at 37 °C, cells were harvested, suspended in the standard lysis buffer (containing 2 mM of DTT) and then homogenized by SPEX SamplePrep 6870 Freezer/Mill followed by three rounds of sonication on ice. The sample was purified using Ni-affinity and size-exclusion chromatography (columns GE HisTrap HP and GE Sephacryl S-200 HR).
All measurements were conducted at 25 °C using 500 MHz Bruker Avance III spectrometer equipped with TBI room temperature probe. […] The buffer additionally contained 150 mM NaCl.
The peptide concentration was incremented from 0 to 160 μM in a step of 20 μM and then brought to 240 μM. […] The results were analyzed using the program TITAN[39].

T1 sequence (P62993 2-59 C32S): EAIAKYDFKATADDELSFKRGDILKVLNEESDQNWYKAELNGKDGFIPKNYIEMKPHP

CC(C)[C@H](N)C(=O)N1CCC[C@H]1C(=O)N1CCC[C@H]1C(=O)N1CCC[C@H]1C(=O)N[C@H](C(=O)N1CCC[C@H]1C(=O)N1CCC[C@H]1C(=O)N[C@@H](CCCNC(=N)N)C(=O)N[C@@H](CCCNC(=N)N)C(=O)N[C@@H](CCCNC(=N)N)C(=O)N[C@@H](CCCCNC(=O)CCl)C(=O)O)C(C)C [Sos1-X′]
Kd: 4.9 µM
